Key:
[1] = target: Hepatocyte growth factor receptor (Homo sapiens) (UniProt P08581); experiment: Met(h) Millipore kinase panel; settings: Compound concentration 1.0 uM
[2] = target: Serine/threonine-protein kinase ICK (Homo sapiens) (UniProt Q9UPZ9); experiment: ICK(h) Millipore kinase panel; settings: Compound concentration 1.0 uM
[3] = target: Eukaryotic elongation factor 2 kinase (Homo sapiens) (UniProt O00418); experiment: eEF-2K(h) Millipore kinase panel; settings: Compound concentration 1.0 uM
[4] = target: Serine/threonine-protein kinase/endoribonuclease IRE1 (Homo sapiens) (UniProt O75460); experiment: IRE1(h) Millipore kinase panel; settings: Compound concentration 1.0 uM
[5] = target: STE20/SPS1-related proline-alanine-rich protein kinase (Homo sapiens) (UniProt Q9UEW8); experiment: STK39(h) Millipore kinase panel; settings: Compound concentration 1.0 uM
[6] = target: Sigma intracellular receptor 2 (Homo sapiens) (UniProt Q5BJF2); settings: Compound concentration 10.0 uM
[7] = target: Serine/threonine-protein kinase PAK 4 (Homo sapiens) (UniProt O96013); experiment: PAK4(h) Millipore kinase panel; settings: Compound concentration 1.0 uM
[8] = target: Calcium/calmodulin-dependent protein kinase type 1 (Homo sapiens) (UniProt Q14012); experiment: CaMKI(h) Millipore kinase panel; settings: Compound concentration 1.0 uM
Sus scrofa = species on record: Sus scrofa; experiment: Inhibition of ATPase, Na+/K+, Heart at compound concentration of 10.0 uM in the Eurofins-Panlabs enzyme assay (Eurofins_assay_107710); design: substrate with concentration; settings: Compound concentration 10.0 uM
[9] = target: Calcium/calmodulin-dependent protein kinase type 1D (Homo sapiens) (UniProt Q8IU85); experiment: CaMKIdelta(h) Millipore kinase panel; settings: Compound concentration 1.0 uM
[10] = target: GABA-A receptor; anion channel (Rattus norvegicus) (UniProt O09028+P15431+P18506+P18508+P19969+P20236+P23574+P23576+P28471+P28473+P30191+P62813+P63079+P63138+Q91ZM7+Q9ES14); settings: Compound concentration 10.0 uM
[11] = target: Serine/threonine-protein kinase D2 (Homo sapiens) (UniProt Q9BZL6); experiment: PKD2(h) Millipore kinase panel; settings: Compound concentration 1.0 uM
[12] = target: Muscarinic acetylcholine receptor M2 (Homo sapiens) (UniProt P08172); settings: Compound concentration 10.0 uM
[13] = target: Tyrosine-protein kinase Lck (Homo sapiens) (UniProt P06239); experiment: Lck(h) activated Millipore kinase panel; settings: Compound concentration 1.0 uM
[14] = target: Serine/threonine-protein kinase DCLK2 (Homo sapiens) (UniProt Q8N568); experiment: DCAMKL2(h) Millipore kinase panel; settings: Compound concentration 1.0 uM
[15] = target: Tyrosine-protein kinase receptor UFO (Homo sapiens) (UniProt P30530); experiment: Axl(h) Millipore kinase panel; settings: Compound concentration 1.0 uM
[16] = target: Receptor tyrosine-protein kinase erbB-4 (Homo sapiens) (UniProt Q15303); experiment: ErbB4(h) Millipore kinase panel; settings: Compound concentration 1.0 uM
[17] = target: Beta-3 adrenergic receptor (Homo sapiens) (UniProt P13945); settings: Compound concentration 10.0 uM
[18] = target: Tyrosine-protein kinase Fer (Homo sapiens) (UniProt P16591); experiment: Fer(h) Millipore kinase panel; settings: Compound concentration 1.0 uM
[19] = target: Serine/threonine-protein kinase VRK2 (Homo sapiens) (UniProt Q86Y07); experiment: VRK2(h) Millipore kinase panel; settings: Compound concentration 1.0 uM
[20] = target: Cyclin-dependent kinase 13/Cyclin-K (Homo sapiens) (UniProt Q14004+O75909); experiment: CDK13/cyclinK(h) Millipore kinase panel; format: protein-complex assay; settings: Compound concentration 1.0 uM
Cyclin-dependent kinase 13/Cyclin-K (Homo sapiens), sequence (O75909 whole entry, looked up): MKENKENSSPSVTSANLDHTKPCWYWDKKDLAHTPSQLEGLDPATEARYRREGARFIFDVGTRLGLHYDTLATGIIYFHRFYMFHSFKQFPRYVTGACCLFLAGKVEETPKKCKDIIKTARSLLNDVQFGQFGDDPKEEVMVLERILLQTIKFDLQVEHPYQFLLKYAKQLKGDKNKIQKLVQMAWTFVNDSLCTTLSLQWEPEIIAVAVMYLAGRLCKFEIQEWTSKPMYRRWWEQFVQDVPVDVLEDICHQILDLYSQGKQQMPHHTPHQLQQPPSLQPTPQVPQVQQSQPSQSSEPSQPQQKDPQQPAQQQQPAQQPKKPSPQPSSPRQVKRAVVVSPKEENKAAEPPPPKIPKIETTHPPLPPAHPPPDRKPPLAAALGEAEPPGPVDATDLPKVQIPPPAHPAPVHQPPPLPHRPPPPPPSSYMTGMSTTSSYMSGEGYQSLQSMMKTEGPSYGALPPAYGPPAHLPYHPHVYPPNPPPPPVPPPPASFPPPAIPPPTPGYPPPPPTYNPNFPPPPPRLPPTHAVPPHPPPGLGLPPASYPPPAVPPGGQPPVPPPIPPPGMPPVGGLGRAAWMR
Cyclin-dependent kinase 13/Cyclin-K (Homo sapiens), sequence (Q14004 whole entry, looked up): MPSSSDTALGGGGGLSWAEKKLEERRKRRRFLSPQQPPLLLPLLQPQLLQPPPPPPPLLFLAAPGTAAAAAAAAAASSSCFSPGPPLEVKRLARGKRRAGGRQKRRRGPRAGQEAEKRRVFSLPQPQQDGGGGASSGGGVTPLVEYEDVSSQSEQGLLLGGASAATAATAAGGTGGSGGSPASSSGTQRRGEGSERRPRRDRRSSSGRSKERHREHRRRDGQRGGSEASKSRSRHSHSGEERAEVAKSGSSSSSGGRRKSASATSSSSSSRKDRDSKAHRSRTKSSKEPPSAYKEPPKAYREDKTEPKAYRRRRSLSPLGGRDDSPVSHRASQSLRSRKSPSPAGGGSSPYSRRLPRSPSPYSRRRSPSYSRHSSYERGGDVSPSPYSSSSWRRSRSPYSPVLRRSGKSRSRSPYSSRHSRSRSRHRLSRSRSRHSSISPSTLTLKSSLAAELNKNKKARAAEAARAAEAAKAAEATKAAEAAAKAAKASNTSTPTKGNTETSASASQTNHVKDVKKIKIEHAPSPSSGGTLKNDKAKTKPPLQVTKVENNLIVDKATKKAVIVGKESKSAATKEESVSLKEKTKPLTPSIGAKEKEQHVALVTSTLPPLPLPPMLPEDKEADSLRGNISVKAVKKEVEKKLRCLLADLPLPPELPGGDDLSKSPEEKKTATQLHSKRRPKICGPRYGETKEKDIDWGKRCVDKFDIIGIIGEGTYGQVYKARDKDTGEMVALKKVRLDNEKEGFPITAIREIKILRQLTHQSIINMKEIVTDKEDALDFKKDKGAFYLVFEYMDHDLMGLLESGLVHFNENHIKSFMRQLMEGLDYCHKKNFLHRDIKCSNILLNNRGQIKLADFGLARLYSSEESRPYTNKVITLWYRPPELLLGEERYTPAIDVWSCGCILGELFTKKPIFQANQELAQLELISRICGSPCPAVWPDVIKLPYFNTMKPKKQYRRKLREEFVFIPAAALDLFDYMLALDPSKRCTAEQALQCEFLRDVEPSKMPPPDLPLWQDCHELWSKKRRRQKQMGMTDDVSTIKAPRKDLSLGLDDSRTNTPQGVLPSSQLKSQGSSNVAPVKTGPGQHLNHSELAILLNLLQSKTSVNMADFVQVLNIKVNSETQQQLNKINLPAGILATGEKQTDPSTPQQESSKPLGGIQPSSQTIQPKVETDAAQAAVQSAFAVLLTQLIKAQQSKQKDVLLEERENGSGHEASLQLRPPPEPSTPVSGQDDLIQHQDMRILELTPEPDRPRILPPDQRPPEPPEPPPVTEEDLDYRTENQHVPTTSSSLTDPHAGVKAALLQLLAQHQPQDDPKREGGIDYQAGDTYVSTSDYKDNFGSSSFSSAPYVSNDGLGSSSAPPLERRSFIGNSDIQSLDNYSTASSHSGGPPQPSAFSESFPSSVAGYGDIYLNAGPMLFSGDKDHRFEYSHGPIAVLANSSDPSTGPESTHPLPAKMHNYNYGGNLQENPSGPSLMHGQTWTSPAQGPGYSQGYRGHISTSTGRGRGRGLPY

[21] = target: Misshapen-like kinase 1 (Homo sapiens) (UniProt Q8N4C8); experiment: MINK(h) Millipore kinase panel; settings: Compound concentration 1.0 uM
[22] = target: Serine/threonine-protein kinase MRCK gamma (Homo sapiens) (UniProt Q6DT37); experiment: MRCKgamma(h) Millipore kinase panel; settings: Compound concentration 1.0 uM
[23] = target: Homeodomain-interacting protein kinase 3 (Homo sapiens) (UniProt Q9H422); experiment: HIPK3(h) Millipore kinase panel; settings: Compound concentration 1.0 uM
[24] = target: Tyrosine-protein kinase Fgr (Homo sapiens) (UniProt P09769); experiment: Fgr(h) Millipore kinase panel; settings: Compound concentration 1.0 uM
[25] = target: Growth hormone secretagogue receptor type 1 (Homo sapiens) (UniProt Q92847); settings: Compound concentration 10.0 uM
[26] = target: Serine/threonine-protein kinase PAK 6 (Homo sapiens) (UniProt Q9NQU5); experiment: PAK6(h) Millipore kinase panel; settings: Compound concentration 1.0 uM
[27] = target: Tau-tubulin kinase 2 (Homo sapiens) (UniProt Q6IQ55); experiment: TTBK2(h) Millipore kinase panel; settings: Compound concentration 1.0 uM
[28] = target: CDK3/cyclin E (Homo sapiens) (UniProt P24864+O96020+Q00526); experiment: CDK3/cyclinE(h) Millipore kinase panel; format: protein-complex assay; settings: Compound concentration 1.0 uM
[29] = target: 5-hydroxytryptamine receptor 7 (Homo sapiens, UniProt P34969); experiment: GPCRScan assay: inhibition of 5-HT7A; design: radioligand conc. used [nm] 5.0 – 6.0, parental cells Stable HEK
5-hydroxytryptamine receptor 7, sequence (P34969 whole entry): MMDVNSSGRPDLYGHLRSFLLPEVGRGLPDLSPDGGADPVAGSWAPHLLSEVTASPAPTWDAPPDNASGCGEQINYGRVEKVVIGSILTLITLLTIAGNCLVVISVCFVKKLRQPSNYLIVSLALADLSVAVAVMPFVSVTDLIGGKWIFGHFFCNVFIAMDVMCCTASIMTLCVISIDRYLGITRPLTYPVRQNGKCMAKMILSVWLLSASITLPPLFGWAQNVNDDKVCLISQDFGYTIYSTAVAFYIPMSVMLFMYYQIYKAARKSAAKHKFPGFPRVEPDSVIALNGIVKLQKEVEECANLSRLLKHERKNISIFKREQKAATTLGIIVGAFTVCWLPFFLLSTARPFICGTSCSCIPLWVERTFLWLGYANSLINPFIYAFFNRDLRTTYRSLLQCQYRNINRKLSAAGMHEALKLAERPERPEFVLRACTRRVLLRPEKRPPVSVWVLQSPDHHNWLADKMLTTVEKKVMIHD

[30] = target: D(2) dopamine receptor (Homo sapiens) (UniProt P14416); settings: Compound concentration 10.0 uM
[31] = target: 5'-AMP-activated protein kinase catalytic subunit alpha-2 (Homo sapiens) (UniProt P54646); experiment: AMPKalpha2(h) Millipore kinase panel; settings: Compound concentration 1.0 uM
[32] = target: Phosphorylase b kinase gamma catalytic chain, testis/liver isoform (Homo sapiens) (UniProt P15735); experiment: PhKgamma2(h) Millipore kinase panel; settings: Compound concentration 1.0 uM
[33] = target: 5-hydroxytryptamine receptor 6 (Homo sapiens, UniProt P50406); settings: Compound concentration 10.0 uM
[34] = target: Discoidin domain-containing receptor 2 (Homo sapiens) (UniProt Q16832); experiment: DDR2(h) Millipore kinase panel; settings: Compound concentration 1.0 uM
[35] = target: Serine/threonine-protein kinase TBK1 (Homo sapiens) (UniProt Q9UHD2); experiment: TBK1(h) Millipore kinase panel; settings: Compound concentration 1.0 uM
[36] = target: Sigma non-opioid intracellular receptor 1 (Homo sapiens) (UniProt Q99720); settings: Compound concentration 10.0 uM
Sigma non-opioid intracellular receptor 1 (Homo sapiens), sequence (Q99720 whole entry): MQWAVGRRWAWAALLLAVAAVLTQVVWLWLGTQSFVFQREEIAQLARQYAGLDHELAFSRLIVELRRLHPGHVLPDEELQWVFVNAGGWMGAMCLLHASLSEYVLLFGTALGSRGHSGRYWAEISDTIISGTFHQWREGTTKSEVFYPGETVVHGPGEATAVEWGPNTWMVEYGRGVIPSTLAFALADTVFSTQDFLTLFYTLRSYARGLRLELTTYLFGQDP

[37] = target: cGMP-dependent protein kinase 1 (Homo sapiens) (UniProt Q13976); experiment: PKG1beta(h) Millipore kinase panel; settings: Compound concentration 1.0 uM
[38] = target: Adenosine receptor A2a (Homo sapiens) (UniProt P29274); settings: Compound concentration 10.0 uM
[39] = target: Sodium-dependent noradrenaline transporter (Homo sapiens) (UniProt P23975); settings: Compound concentration 10.0 uM
Sodium-dependent noradrenaline transporter (Homo sapiens), sequence (P23975 whole entry): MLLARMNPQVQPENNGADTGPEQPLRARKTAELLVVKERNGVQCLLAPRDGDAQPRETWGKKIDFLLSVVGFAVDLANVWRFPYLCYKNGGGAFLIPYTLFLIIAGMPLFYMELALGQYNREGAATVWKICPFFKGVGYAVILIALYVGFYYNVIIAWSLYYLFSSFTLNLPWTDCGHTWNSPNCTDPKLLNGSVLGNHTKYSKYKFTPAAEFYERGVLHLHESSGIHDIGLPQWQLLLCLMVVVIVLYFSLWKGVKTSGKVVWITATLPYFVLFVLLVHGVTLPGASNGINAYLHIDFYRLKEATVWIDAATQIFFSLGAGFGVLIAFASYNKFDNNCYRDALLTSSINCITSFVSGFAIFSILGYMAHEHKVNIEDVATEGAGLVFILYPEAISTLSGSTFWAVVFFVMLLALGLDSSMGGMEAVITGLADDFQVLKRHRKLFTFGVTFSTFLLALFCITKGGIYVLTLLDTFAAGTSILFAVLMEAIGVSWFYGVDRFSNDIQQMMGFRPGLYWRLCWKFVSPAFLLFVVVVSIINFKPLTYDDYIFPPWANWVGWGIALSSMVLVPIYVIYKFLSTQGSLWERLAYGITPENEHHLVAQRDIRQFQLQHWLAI

[40] = target: 5-hydroxytryptamine receptor 1E (Homo sapiens) (UniProt P28566); settings: Compound concentration 10.0 uM
[41] = target: Dual specificity tyrosine-phosphorylation-regulated kinase 1B (Homo sapiens) (UniProt Q9Y463); experiment: DYRK1B(h) Millipore kinase panel; settings: Compound concentration 1.0 uM
[42] = target: BDNF/NT-3 growth factors receptor (Homo sapiens) (UniProt Q16620); experiment: TrkB(h) Millipore kinase panel; settings: Compound concentration 1.0 uM
[43] = target: Serine/threonine-protein kinase B-raf (Homo sapiens) (UniProt P15056); experiment: BRaf(h) Millipore kinase panel; settings: Compound concentration 1.0 uM
[44] = target: CDK12/Cyclin K (Homo sapiens) (UniProt O75909+Q9NYV4); experiment: CDK12/cyclinK(h) Millipore kinase panel; format: protein-complex assay; settings: Compound concentration 1.0 uM
CDK12/Cyclin K (Homo sapiens), sequence (O75909 whole entry, looked up): as the sequence (O75909 whole entry, looked up) above
CDK12/Cyclin K (Homo sapiens), sequence (Q9NYV4 whole entry, looked up): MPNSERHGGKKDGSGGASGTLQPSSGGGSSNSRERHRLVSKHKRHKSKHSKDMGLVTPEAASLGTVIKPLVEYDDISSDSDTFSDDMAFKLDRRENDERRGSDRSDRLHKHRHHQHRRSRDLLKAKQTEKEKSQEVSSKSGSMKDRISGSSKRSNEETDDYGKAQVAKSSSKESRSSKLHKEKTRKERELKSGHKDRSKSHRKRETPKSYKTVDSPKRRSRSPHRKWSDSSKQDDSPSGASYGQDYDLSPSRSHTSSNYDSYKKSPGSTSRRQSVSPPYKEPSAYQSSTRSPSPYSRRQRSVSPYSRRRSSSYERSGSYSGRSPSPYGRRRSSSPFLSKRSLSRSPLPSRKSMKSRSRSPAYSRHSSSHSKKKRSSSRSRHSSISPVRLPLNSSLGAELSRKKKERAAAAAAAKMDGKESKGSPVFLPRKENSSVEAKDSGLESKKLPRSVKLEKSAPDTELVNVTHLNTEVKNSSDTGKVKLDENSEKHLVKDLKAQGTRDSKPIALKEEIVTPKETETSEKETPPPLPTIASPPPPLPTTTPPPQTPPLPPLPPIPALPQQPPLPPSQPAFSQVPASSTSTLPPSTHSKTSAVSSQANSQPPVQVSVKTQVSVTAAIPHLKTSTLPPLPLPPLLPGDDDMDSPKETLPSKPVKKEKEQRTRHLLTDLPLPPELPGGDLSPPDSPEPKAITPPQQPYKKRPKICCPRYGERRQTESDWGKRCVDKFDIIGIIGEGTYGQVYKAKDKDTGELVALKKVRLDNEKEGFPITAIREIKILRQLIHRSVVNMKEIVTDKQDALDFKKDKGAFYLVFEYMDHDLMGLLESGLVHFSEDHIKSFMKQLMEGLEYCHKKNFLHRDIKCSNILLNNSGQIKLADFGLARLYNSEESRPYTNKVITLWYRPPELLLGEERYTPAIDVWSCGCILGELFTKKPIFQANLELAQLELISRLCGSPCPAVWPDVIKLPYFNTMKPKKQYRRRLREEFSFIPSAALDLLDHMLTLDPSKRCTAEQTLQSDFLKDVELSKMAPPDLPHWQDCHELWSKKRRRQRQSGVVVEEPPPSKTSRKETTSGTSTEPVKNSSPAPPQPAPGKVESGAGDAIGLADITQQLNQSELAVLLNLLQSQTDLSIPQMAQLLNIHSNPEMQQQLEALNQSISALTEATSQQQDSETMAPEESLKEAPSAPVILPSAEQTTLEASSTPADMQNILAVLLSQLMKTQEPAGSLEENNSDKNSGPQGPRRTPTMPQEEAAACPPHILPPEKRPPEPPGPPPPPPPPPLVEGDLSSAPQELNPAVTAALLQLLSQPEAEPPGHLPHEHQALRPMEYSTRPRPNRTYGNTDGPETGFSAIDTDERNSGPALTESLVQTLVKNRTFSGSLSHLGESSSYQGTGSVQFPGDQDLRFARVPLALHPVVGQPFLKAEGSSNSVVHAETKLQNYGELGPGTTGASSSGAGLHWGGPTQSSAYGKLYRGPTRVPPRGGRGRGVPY

[45] = target: Insulin receptor (Homo sapiens) (UniProt P06213); experiment: IR(h),activated Millipore kinase panel; settings: Compound concentration 1.0 uM
[46] = target: Serine/threonine-protein kinase WNK4 (Homo sapiens) (UniProt Q96J92); experiment: WNK4(h) Millipore kinase panel; settings: Compound concentration 1.0 uM

Question: How did the inhibition [1] turn out when `CC[C@@H](Nc1c(C#N)c(-c2ccc(-c3cccc(C)c3F)cc2)nc2cnccc12)C(=O)O` [BAY-091] was run?
Answer: Its inhibition is 2.36%.

Question: What about the inhibition [2] of the same compound?
Answer: The inhibition was 14.8%.

Question: What about the inhibition [3] of the same compound?
Answer: Its inhibition is 5.5%.

Question: And the inhibition [4]?
Answer: The inhibition was 2.72%.

Question: And the inhibition [5]?
Answer: The inhibition was 5.6%.

Question: What about the inhibition [6] of the same compound?
Answer: The inhibition was 24.6%.

Question: And the inhibition [7]?
Answer: Its inhibition is 1.36%.

Question: What about the inhibition [8] of the same compound?
Answer: The inhibition was 7.33%.

Question: What about the inhibition (Sus scrofa) of the same compound?
Answer: The inhibition was 20%.

Question: What about the inhibition [9] of the same compound?
Answer: The inhibition was 4.68%.

Question: And the inhibition [10]?
Answer: The inhibition was 29.9%.

Question: What about the inhibition [11] of the same compound?
Answer: Its inhibition is 4.37%.

Question: What about the inhibition [12] of the same compound?
Answer: Its inhibition is 8%.

Question: And the inhibition [13]?
Answer: The inhibition was -3.67%.

Question: And the inhibition [14]?
Answer: Its inhibition is -2.01%.

Question: And the inhibition [15]?
Answer: The inhibition was 12.6%.

Question: What about the inhibition [16] of the same compound?
Answer: The inhibition was 3.85%.

Question: What about the inhibition [17] of the same compound?
Answer: Its inhibition is -2.13%.

Question: What about the inhibition [18] of the same compound?
Answer: Its inhibition is 5.23%.

Question: And the inhibition [19]?
Answer: The inhibition was 4.1%.

Question: And the inhibition [20]?
Answer: The inhibition was 1.16%.

Question: And the inhibition [21]?
Answer: Its inhibition is 3.07%.

Question: And the inhibition [22]?
Answer: The inhibition was 5.46%.

Question: And the inhibition [23]?
Answer: Its inhibition is 4.32%.

Question: And the inhibition [24]?
Answer: Its inhibition is 5.05%.

Question: And the inhibition [25]?
Answer: Its inhibition is 6%.

Question: And the inhibition [26]?
Answer: The inhibition was -5.79%.

Question: And the inhibition [27]?
Answer: The inhibition was 1.17%.

Question: What about the inhibition [28] of the same compound?
Answer: The inhibition was 2.41%.

Question: What about the Ki [29] of the same compound?
Answer: The Ki was > 10 µM.

Question: And the pKi [29]?
Answer: Its pKi is < 5.

Question: What about the inhibition [30] of the same compound?
Answer: Its inhibition is 13.8%.

Question: What about the inhibition [31] of the same compound?
Answer: Its inhibition is -5.39%.

Question: And the inhibition [32]?
Answer: The inhibition was -0.34%.

Question: What about the inhibition [33] of the same compound?
Answer: The inhibition was -2.99%.

Question: What about the inhibition [34] of the same compound?
Answer: Its inhibition is 16.3%.

Question: And the inhibition [35]?
Answer: Its inhibition is 8.44%.

Question: What about the inhibition [36] of the same compound?
Answer: Its inhibition is 35.8%.

Question: What about the inhibition [37] of the same compound?
Answer: The inhibition was 8.22%.

Question: What about the inhibition [38] of the same compound?
Answer: Its inhibition is 7%.

Question: What about the inhibition [39] of the same compound?
Answer: Its inhibition is -2.64%.

Question: And the inhibition [40]?
Answer: Its inhibition is 17.2%.

Question: What about the inhibition [41] of the same compound?
Answer: The inhibition was 12.1%.

Question: What about the inhibition [42] of the same compound?
Answer: Its inhibition is 2.08%.

Question: And the inhibition [43]?
Answer: Its inhibition is 23.5%.

Question: And the inhibition [44]?
Answer: Its inhibition is 10.3%.

Question: And the inhibition [45]?
Answer: The inhibition was 9.43%.

Question: What about the inhibition [46] of the same compound?
Answer: Its inhibition is 11.1%.

— ChEMBL document CHEMBL4800729 (2021)
